Test results as given in patent publication US20260102501A1, “ANTI-CANCER NUCLEAR HORMONE RECEPTOR-TARGETING COMPOUNDS” (Nuvation Bio Inc., priority 2022, published 2026).
Read-outs that look alike come from different tables or passages of the source.

Experiments:
[1] = target: T1, AR (cytosol from LnCaP cells) (Homo sapiens, UniProt P10275, T878A); test: AR binding assay (3H-R1881 displacement)
T1 sequence (P10275 1-920 T878A): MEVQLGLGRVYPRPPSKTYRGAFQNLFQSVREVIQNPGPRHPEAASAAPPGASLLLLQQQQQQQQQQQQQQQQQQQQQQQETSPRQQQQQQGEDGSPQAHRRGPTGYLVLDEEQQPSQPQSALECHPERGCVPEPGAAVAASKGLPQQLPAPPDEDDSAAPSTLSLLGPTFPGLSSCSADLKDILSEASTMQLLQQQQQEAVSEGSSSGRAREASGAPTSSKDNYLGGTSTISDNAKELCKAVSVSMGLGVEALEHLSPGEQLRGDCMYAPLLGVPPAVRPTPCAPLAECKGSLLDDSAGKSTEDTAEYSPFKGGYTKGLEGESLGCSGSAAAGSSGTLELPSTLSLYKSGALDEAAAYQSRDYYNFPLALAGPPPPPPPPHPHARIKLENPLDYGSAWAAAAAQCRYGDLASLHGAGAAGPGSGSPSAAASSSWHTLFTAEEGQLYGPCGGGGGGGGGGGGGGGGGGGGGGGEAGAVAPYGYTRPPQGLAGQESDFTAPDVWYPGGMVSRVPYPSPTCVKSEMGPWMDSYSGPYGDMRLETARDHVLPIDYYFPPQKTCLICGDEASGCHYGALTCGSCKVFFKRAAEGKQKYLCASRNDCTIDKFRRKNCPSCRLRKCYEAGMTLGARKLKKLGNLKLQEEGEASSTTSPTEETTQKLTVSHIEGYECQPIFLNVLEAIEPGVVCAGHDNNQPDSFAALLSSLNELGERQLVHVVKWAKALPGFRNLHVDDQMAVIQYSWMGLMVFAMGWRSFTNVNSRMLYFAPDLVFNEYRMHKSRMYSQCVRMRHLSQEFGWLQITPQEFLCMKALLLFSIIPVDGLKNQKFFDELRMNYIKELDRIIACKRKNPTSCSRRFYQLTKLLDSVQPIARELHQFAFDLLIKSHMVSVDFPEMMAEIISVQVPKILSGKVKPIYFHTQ
Description: The plate was then centrifuged at 3000 rpm for 30 minutes at 4° C.

22Rv1 cells = test: Cell viability assay (CellTiterGlo); conditions: Homo sapiens, 22Rv1, 144 h, read-out: 22RV1 (IC50, nM)
LNCap cells = test: Cell viability assay (CellTiterGlo); format: cell-based; conditions: Homo sapiens, 144 h
IEC6 cells = test: Cell viability assay (CellTiterGlo); conditions: Rattus norvegicus, IEC-6, 144 h, read-out: IEC-6 (IC50, nM)
[2] = 6 days incubation, CellTiterGlo, read-out: LNCap (IC50)

SMILES | IC50 [1] [nM] | IC50 (22Rv1 cells) [nM] | IC50 (LNCap cells; read-out: LNCap (IC50, nM)) [nM] | IC50 (IEC6 cells) [nM] | IC50 (LNCap cells; [2]) [nM]
CC[C@@]1(O)C(=O)OCc2c1cc1n(c2=O)Cc2cc3c(CN4CCN(C(=O)C5CCN(c6ccc(C(=O)N[C@H]7CC[C@H](Oc8ccc(C#N)c(Cl)c8)CC7)nn6)CC5)CC4)c(OC(=O)N(C)c4ccccc4)ccc3nc2-1 [Compound 2, (S)-10-((4-(1-(6-(((1r,4r)-4-(3-Chloro-4-cyanophenoxy)cyclohexyl)carbamoyl)pyridazin-3-yl)piperidine-4-carbonyl)piperazin-1-yl)methyl)-4-ethyl-4-hydroxy-3,14-dioxo-3,4,12,14-tetrahydro-1H-pyrano[3′,4′:6,7]indolizino[1,2-b]quinolin-9-yl Methyl(phenyl)carbamate] | 101 to 1000 | > 1000 | > 1000 |  | 
CC[C@@]1(O)C(=O)OCc2c1cc1n(c2=O)Cc2cc3c(CN(C)C)c(OC(=O)N4CCN(C(=O)C5CCN(c6ccc(C(=O)N[C@H]7CC[C@H](N(C)c8ccc(C#N)c(Cl)c8)CC7)nn6)CC5)CC4)ccc3nc2-1 [Compound No. 11, (S)-10-((Dimethylamino)methyl)-4-ethyl-4-hydroxy-3,14-dioxo-3,4,12,14-tetrahydro-1H-pyrano[3′,4′:6,7]indolizino[1,2-b]quinolin-9-yl 4-(1-(6-(((1r,4r)-4-((3-chloro-4-cyanophenyl)(methyl)amino)-cyclohexyl)carbamoyl)pyridazin-3-yl)piperidine-4-carbonyl)piperazine-1-carboxylate] | < 10 | 10 to 100 | 10 to 100 | 101 to 1000 | 
CC[C@@]1(O)C(=O)OCc2c1cc1n(c2=O)Cc2cc3c(CN4CCN(C(=O)C5CCN(c6ccc(C(=O)N[C@H]7CC[C@H](Oc8ccc(C#N)c(Cl)c8)CC7)nn6)CC5)CC4)c(OC(=O)N4CCN(C)CC4)ccc3nc2-1 [Compound No. 10, (S)-10-((4-(1-(6-(((1r,4r)-4-(3-Chloro-4-cyanophenoxy)cyclohexyl)carbamoyl)pyridazin-3-yl)piperidine-4-carbonyl)piperazin-1-yl)methyl)-4-ethyl-4-hydroxy-3,14-dioxo-3,4,12,14-tetrahydro-1H-pyrano[3′,4′:6,7]indolizino[1,2-b]quinolin-9-yl 4-Methylpiperazine-1-carboxylate] | 10 to 100 | > 1000 | > 1000 | > 1000 | 
CC[C@@]1(O)C(=O)OCc2c1cc1n(c2=O)Cc2cc3c(CN(C)C)c(OCC4CCN(C(=O)C5CCN(c6ccc(C(=O)N[C@H]7CC[C@H](Oc8ccc(C#N)c(Cl)c8)CC7)nn6)CC5)CC4)ccc3nc2-1 [Compound No. 16, N-((1r,4r)-4-(3-Chloro-4-cyanophenoxy)cyclohexyl)-6-(4-(4-((((S)-10-((dimethylamino)-methyl)-4-ethyl-4-hydroxy-3,14-dioxo-3,4,12,14-tetrahydro-1H-pyrano[3′,4′:6,7]indolizino[1,2-b]quinolin-9-yl)oxy)methyl)piperidine-1-carbonyl)piperidin-1-yl)pyridazine-3-carboxamide] | 10 to 100 | 101 to 1000 |  | > 1000 | 101 to 1000
CC[C@@]1(O)C(=O)OCc2c1cc1n(c2=O)Cc2cc3c(CN4CCN(CC5CCN(c6ccc(C(=O)N[C@H]7CC[C@H](N(C)c8ccc(C#N)c(Cl)c8)CC7)nn6)CC5)CC4)c(O)ccc3nc2-1 [Compound 28, N-((1r,4r)-4-((3-Chloro-4-cyanophenyl)(methyl)amino)cyclohexyl)-6-(4-((4-(((S)-4-ethyl-4,9-dihydroxy-3,14-dioxo-3,4,12,14-tetrahydro-1H-pyrano[3′,4′:6,7]indolizino[1,2-b]quinolin-10-yl)methyl)piperazin-1-yl)methyl)piperidin-1-yl)pyridazine-3-carboxamide] | 10 to 100 | 10 to 100 |  |  | 10 to 100
CC[C@@]1(O)C(=O)OCc2c1cc1n(c2=O)Cc2cc3c(CN(C)C)c(OC(=O)N4C[C@H](C)N(C(=O)C5CCN(c6ccc(C(=O)N[C@H]7CC[C@H](N(C)c8ccc(C#N)c(Cl)c8)CC7)nn6)CC5)C[C@H]4C)ccc3nc2-1 [Compound No. 17, (S)-10-((Dimethylamino)methyl)-4-ethyl-4-hydroxy-3,14-dioxo-3,4,12,14-tetrahydro-1H-pyrano[3′,4′:6,7]indolizino[1,2-b]quinolin-9-yl (2R,5S)-4-(1-(6-(((1r,4r)-4-((3-chloro-4-cyanophenyl)(methyl)-amino)cyclohexyl)carbamoyl)pyridazin-3-yl)piperidine-4-carbonyl)-2,5-dimethylpiperazine-1-carboxylate] | 10 to 100 | 101 to 1000 | 101 to 1000 | > 1000 | 
CC[C@@]1(O)C(=O)OCc2c1cc1n(c2=O)Cc2cc3c(CN(C)C(=O)C(C)(C)N(C)C(=O)CO[C@H]4CC[C@H]5[C@@H]6CC[C@H]7CC(=O)CC[C@]7(C)[C@H]6CC[C@]45C)c(O)ccc3nc2-1 [Compound 4, 2-(2-(((5S,8R,9S,10S,13S,14S,17S)-10,13-Dimethyl-3-oxohexadecahydro-1H-cyclopenta[a]phenanthren-17-yl)oxy)-N-methylacetamido)-N—(((S)-4-ethyl-4,9-dihydroxy-3,14-dioxo-3,4,12,14-tetrahydro-1H-pyrano[3′,4′:6,7]indolizino[1,2-b]quinolin-10-yl)methyl)-N,2-dimethylpropanamide] |  | 101 to 1000 |  |  | 101 to 1000
CC[C@@]1(O)C(=O)OCc2c1cc1n(c2=O)Cc2cc3c(CN4CCN(C(=O)C5CCN(c6ccc(C(=O)N[C@H]7CC[C@H](N(C)c8ccc(C#N)c(Cl)c8)CC7)nn6)CC5)CC4)c(O)ccc3nc2-1 [Compound No. 15, N-((1r,4r)-4-((3-Chloro-4-cyanophenyl)(methyl)amino)cyclohexyl)-6-(4-(4-(((S)-4-ethyl-4,9-dihydroxy-3,14-dioxo-3,4,12,14-tetrahydro-1H-pyrano[3′,4′:6,7]indolizino[1,2-b]quinolin-10-yl)methyl)-piperazine-1-carbonyl)piperidin-1-yl)pyridazine-3-carboxamide] | < 10 | 10 to 100 |  | > 1000 | 10 to 100
CC[C@@]1(O)C(=O)OCc2c1cc1n(c2=O)Cc2cc3c(CN(C)C)c(OC(=O)N4CCN(CC5CCN(c6ccc(N7C(=S)N(c8ccc(C#N)c(Cl)c8)C(=O)C7(C)C)cc6)CC5)CC4)ccc3nc2-1 [Compound 58, (S)-10-((dimethylamino)methyl)-4-ethyl-4-hydroxy-3,14-dioxo-3,4,12,14-tetrahydro-1H-pyrano[3′,4′:6,7]indolizino[1,2-b]quinolin-9-yl 4-((1-(4-(3-(3-chloro-4-cyanophenyl)-5,5-dimethyl-4-oxo-2-thioxoimidazolidin-1-yl)phenyl)piperidin-4-yl)methyl)piperazine-1-carboxylate] | 10 to 100 | 10 to 100 | 101 to 1000 | 101 to 1000 | 
CC[C@@]1(O)C(=O)OCc2c1cc1n(c2=O)Cc2cc3c(CN(C)C)c(OC(=O)N4CCN(C(=O)CCCCCNC(=O)c5ccc(N6C(=S)N(c7ccc(C#N)c(C(F)(F)F)c7)C(=O)C6(C)C)cc5F)CC4)ccc3nc2-1 [Compound 9, (S)-10-((Dimethylamino)methyl)-4-ethyl-4-hydroxy-3,14-dioxo-3,4,12,14-tetrahydro-1H-pyrano[3′,4′:6,7]indolizino[1,2-b]quinolin-9-yl 4-(6-(4-(3-(4-cyano-3-(trifluoromethyl)phenyl)-5,5-dimethyl-4-oxo-2-thioxoimidazolidin-1-yl)-2-fluorobenzamido)hexanoyl)piperazine-1-carboxylate] | > 1000 | 10 to 100 | 10 to 100 | > 1000 | 
CC[C@@]1(O)C(=O)OCc2c1cc1n(c2=O)Cc2cc3c(CN4CCN(C(=O)C5CCN(c6ccc(C(=O)N[C@H]7CC[C@H](Oc8ccc(C#N)c(Cl)c8)CC7)nn6)CC5)CC4)c(OC(=O)N4CCC(N5CCCCC5)CC4)ccc3nc2-1 [Compound No. 13, (S)-10-((4-(1-(6-(((1r,4r)-4-(3-Chloro-4-cyanophenoxy)cyclohexyl)carbamoyl)pyridazin-3-yl)piperidine-4-carbonyl)piperazin-1-yl)methyl)-4-ethyl-4-hydroxy-3,14-dioxo-3,4,12,14-tetrahydro-1H-pyrano[3′,4′:6,7]indolizino[1,2-b]quinolin-9-yl [1,4′-bipiperidine]-1′-carboxylate] | 10 to 100 | > 1000 | > 1000 | > 1000 | 
